By Ki is commonly meant the equilibrium dissociation constant of an inhibitor or competing ligand from its target.

Data on nine compounds can be found in US6794389B2, “Quinazoline derivatives and drugs” (Nippon Shinyaku Co., Ltd., priority 2000, dated 2004).

In test [1] the target is T1, nociceptin receptor (Homo sapiens, UniProt P41146).
T1 construct: expressed in transfected cells
The experiment in a line: Nociceptin receptor binding assay ([3H]nociceptin, cell membrane suspension). As to conditions: [3H]nociceptin 0.08 nM, 25° C., 60 minutes; Ki calculated from IC50 and Kd; read-out: Affinity for nociceptin receptors Ki. How it is done: A cell membrane suspension obtained from a human nociceptin-expressing cell was prepared so that it contained 5 to 10 μg/mL of the membrane protein in a Tris buffer [50 mM Tris-HCl (pH 7.8), 5 mM MgCl2, 1 mM EGTA, 0.1% BSA]. To this, [^3H]nociceptin (diluted at the final concentration of 0.08 nM with the Tris buffer) and a tested substance were added and the mixture was incubated at 25° C. for 60 minutes. Using a cell harvester and a washing solution [50 mM Tris-HCl (pH 7.8), 4° C.], the membrane was recovered onto a GF/B filter which had been pretreated with 0.3% PEI, which was then washed further 4 times. The filter was transferred to a vial, to which a scintillator was added, and the radioactivity was measured using a liquid scintillation counter. Noted that a non-specific binding was regarded as a binding in the presence of 10 μM nociceptin, and a specific binding was obtained by subtracting the non-specific binding from the total binding. From a ratio of binding inhibition in the presence of the tested substance, an IC50 value was obtained, and was then used together with the Kd value for [^3H]nociceptin to calculate the K1 value for the tested substance.

Test [2] has as its target T2, μ-receptor (Homo sapiens, UniProt P35372).
T2 construct: purchased Receptor Biology
Nature of the test: μ-Receptor binding assay ([3H]diprenorphine, cell membrane preparation). The settings on record: [3H]diprenorphine 0.13 nM, 25° C., 90 minutes; Ki calculated from IC50 and Kd; read-out: Affinity for μ-receptor Ki. How it is done: A human μ-receptor-expressing cell membrane preparation (Receptor Biology) was prepared so that it contained 8.5 μg/mL of the membrane protein in a Tris buffer [50 mM Tris-HCl (pH 7.8), 5 MM MgCl2, 1 mM EGTA, 0.1% BSA]. To this, [^3H]diprenorphine (diluted at the final concentration of 0.13 nM with the Tris buffer) and a tested substance were added and the mixture was incubated at 25° C. for 90 minutes. Using a cell harvester and a washing solution [50 mM Tris-HCl (pH 7.8), 4° C.], the membrane was recovered onto a GF/B filter which had been pretreated with 0.3% PEI, which was then washed further 4 times. The filter was transferred to a vial, to which a scintillator was added, and the radioactivity was measured using a liquid scintillation counter. A non-specific binding was regarded as a binding in the presence of 100 μM naloxone, and a specific binding was obtained by subtracting the non-specific binding from the total binding. From a ratio of binding inhibition in the presence of the tested substance, and IC50 value was obtained, and was then used together with the Kd value for [^3H]diprenorphine to calculate the Ki value of the tested substance.

The test system of test [3] is acetic acid-induced writhing reactions in mice. The experiment in a line: Acetic acid-writhing test in mice. It is filed as in vivo, mice (Slc:ddY). The settings on record: 10 nmol/animal intrathecal, male mice, counted over 20 minutes after 0.6% acetic acid intraperitoneally; for Number of writhings (individual animal): animal No. 1-10; for Number of writhings (Mean): mean of 10 animals (saline control 17.67). The protocol:
Ten male mice (Slc:ddY, 4 to 5 weeks old) were assigned to each group. The dorsal skin of each mouse was incised laterally in a length of approximately 3 cm, and after acclimatizing for 30 minutes or longer a 27G needle fitted on the tip of a silicone tube connected to a microsyringe was inserted into a position around L3-L4, through which 5 μL of a drug solution was infused, whereby effecting an administration into a spinal subarachnoid cavity. The tested substance was dissolved in physiological saline, and administered at 10 nmol/animal. In a control group, physiological saline was administered similarly.
A mouse which had been fasting since the day before the experiment was placed in an observation cage (20×20×15 cm), where it was allowed to be acclimatized over a period of 30 minutes or longer, and then received 100 μL per 10 g body weight of a 0.6% acetic acid solution intraperitoneally via a 27G needle. The number of the writhing reactions with stretching the abdomen was counted over 20 minutes after the administration of acetic acid, and the obtained data were represented as means±standard errors. Only the screening data were subjected to the test for a significant difference by a t test between the two groups of the control and a treatment group or by one-way analysis of variance among multiple groups followed by Dunnett's multiple comparison test, and the significant difference was regarded to be present when p<0.05.
(In general: In writhing tests, fewer writhes than in controls are read as antinociception.)

Where “and” joins values, the source holds several entries; their conditions need not be identical. Identical values can stand only once. Counter-ions that a name gives are not always drawn.

T1 sequence (P41146 whole entry): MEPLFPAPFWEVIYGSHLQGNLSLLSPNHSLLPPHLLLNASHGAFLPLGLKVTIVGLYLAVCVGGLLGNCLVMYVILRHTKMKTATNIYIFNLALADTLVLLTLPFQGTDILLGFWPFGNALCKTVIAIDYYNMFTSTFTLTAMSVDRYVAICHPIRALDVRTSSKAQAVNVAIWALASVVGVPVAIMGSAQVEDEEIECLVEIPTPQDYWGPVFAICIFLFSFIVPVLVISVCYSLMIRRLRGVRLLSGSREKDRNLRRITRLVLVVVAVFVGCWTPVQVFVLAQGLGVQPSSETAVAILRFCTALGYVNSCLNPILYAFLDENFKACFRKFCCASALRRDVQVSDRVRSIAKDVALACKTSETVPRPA
T2 sequence (P35372 whole entry): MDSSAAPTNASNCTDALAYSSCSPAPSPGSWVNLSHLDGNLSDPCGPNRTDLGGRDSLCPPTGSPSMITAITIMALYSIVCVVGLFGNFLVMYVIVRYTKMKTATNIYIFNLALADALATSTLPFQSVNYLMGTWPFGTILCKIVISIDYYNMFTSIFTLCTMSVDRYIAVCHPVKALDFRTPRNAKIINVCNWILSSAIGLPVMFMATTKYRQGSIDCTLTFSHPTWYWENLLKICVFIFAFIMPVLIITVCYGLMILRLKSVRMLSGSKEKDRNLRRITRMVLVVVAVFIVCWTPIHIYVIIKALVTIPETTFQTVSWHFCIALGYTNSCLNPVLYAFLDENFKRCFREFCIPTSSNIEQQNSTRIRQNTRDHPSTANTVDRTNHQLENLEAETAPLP

`COc1ccc2nc(NC(=O)c3ccc(Cl)cc3)nc(N[C@H]3CCCC[C@H]3NC(=N)N)c2c1` (relative stereo) [Example 2, cis-N-Amidino-2-[2-(4-chlorobenzoylamino)-6-methoxyquinazolin-4-yl]aminocyclohexylamine Dihydrochloride]: the inhibitory constant (Ki) in test [1] was 6 nM; in test [2], 193 nM.

In the case of `COc1ccc2nc(C=Cc3ccccn3)nc(N[C@H]3CC[C@@H](CNC(=N)N)C[C@H]3C)c2c1` (relative stereo) [Example 68, cis-4-Guanidinomethyl-cis-2-methyl-N-{6-methoxy-2-[2-(2-pyridyl)ethenyl]quinazolin-4-yl}cyclohexylamine Trihydrochloride], the figures for the Ki in test [1] and in test [2] were 3 nM and 32 nM, respectively.

`COc1ccc2nc(C=Cc3ccc(Cl)cc3)nc(NCCCCCCNC(=N)N)c2c1` [Example 16, N-Amidino-N′-[2-(4-chlorostyryl)-6-methoxyquinazolin-4-yl]-1,6-hexanediamine Dihydrochloride]: the Ki in test [1] is 9 nM; in test [2], 38 nM.

Regarding `COc1ccc2nc(C=Cc3ccccn3)nc(NCCCCCCNC(=N)N)c2c1.Cl.Cl` [Example 23, N-Amidino-N′-{6-methoxy-2-[2-(2-pyridyl)ethenyl]quinazolin-4-yl}-1,6-hexanediamine Dihydrochloride], the Ki in test [1] was 3 nM; in test [2], 19 nM. Further, the “Number of writhings (individual animal)” value in test [3] (listed as Ex. 23, Dihydrochloride) is 14 and 0 (5×) and 6 and 18 and 28 and 3. Also, the “Number of writhings (Mean)” value in test [3] came to 6.90.

As for `COc1ccc2nc(C=Cc3ccccn3)nc(NC[C@H]3CC[C@@H](CNC(=N)N)CC3)c2c1` [Example 44, cis-N-Amidino-N′-{6-methoxy-2-[2-(2-pyridyl)ethenyl]quinazolin-4-yl}-1,4-bis(aminomethyl)cyclohexane Trihydrochloride], the Ki was 7 nM in test [1] and 30 nM in test [2].

For `Cc1ccc2nc(C=Cc3ccccn3)nc(NCCCCCCNC(=N)N)c2c1.Cl.Cl.Cl` [Example 46, N-Amidino-N′-{6-methyl-2-[2-(2-pyridyl)ethenyl]quinazolin-4-yl}-1,6-hexanediamine Trihydrochloride], the Ki in test [1] is 3 nM; in test [2], 23 nM. Further, in test [3] (listed as Ex. 46, Trihydrochloride), the “Number of writhings (individual animal)” value is 0 (4×) and 13 and 6 and 3 and 10 and 4 and 9. In test [3], the “Number of writhings (Mean)” value is on record as 4.50.

For the compound `COc1ccc2nc(C=Cc3ccccn3)nc(NC(C)CCCCCNC(=N)N)c2c1.Cl.Cl.Cl` (stereo not drawn) [Example 48, N-Amidino-6-{6-methoxy-2-[2-(2-pyridyl)ethenyl]quinazolin-4-yl}aminoheptylamine Trihydrochloride], the “Number of writhings (individual animal)” value in test [3] (listed as Ex. 48, Trihydrochloride) was 7 and 0 (4×) and 6 and 16 and 1 and 14 and 12. In addition, the “Number of writhings (Mean)” value in test [3] was 5.60.

With `COc1ccc2nc(C=Cc3ccccn3)nc(NCCN(CCc3ccccc3)C(=N)N)c2c1` [Example 66, N-Amidino-2-{6-methoxy-2-[2-(2-pyridyl)ethenyl]quinazolin-4-yl}aminoethyl-phenylethylamine Trihydrochloride], the Ki was 4 nM in test [1] and 22 nM in test [2].

Take “cis-4-Guanidinomethyl-N-{2-[2-(2-pyridyl)ethenyl]-6-methoxyquinazolin-4-yl}cyclohexylamine Trihydrochloride [Example 4]”: the Ki in test [1] is 8 nM; in test [2], 63 nM. In test [3] (listed as Ex. 4, Trihydrochloride), the “Number of writhings (individual animal)” value was 18 and 12 (2×) and 10 and 0 (2×) and 2 and 11 and 1 and 13. Further, the “Number of writhings (Mean)” value in test [3] was 7.90.
